Reference: patent publication US20250059171A1 (Hoffmann-La Roche Inc., priority 2021, published 2025)

Key:
HCoV-229E 3CLpro = HCoV-229E 3CLpro (Human coronavirus 229E, UniProt P0C6X1); test: HCoV-229E 3CLpro inhibition assay (FRET); type: biochemical
MERS-CoV 3CLpro = MERS-CoV 3CLpro (Middle East respiratory syndrome-related coronavirus, UniProt K9N7C7); test: biochemical
SARS-CoV 3CLpro = SARS-CoV 3CLpro (Severe acute respiratory syndrome coronavirus, UniProt P0C6X7); test: biochemical
SARS-CoV-2 3CLpro = SARS-CoV-2 3CLpro (Severe acute respiratory syndrome coronavirus 2, UniProt P0DTD1); test: biochemical

Chain of MERS-CoV 3CLpro (K9N7C7 3248-3553): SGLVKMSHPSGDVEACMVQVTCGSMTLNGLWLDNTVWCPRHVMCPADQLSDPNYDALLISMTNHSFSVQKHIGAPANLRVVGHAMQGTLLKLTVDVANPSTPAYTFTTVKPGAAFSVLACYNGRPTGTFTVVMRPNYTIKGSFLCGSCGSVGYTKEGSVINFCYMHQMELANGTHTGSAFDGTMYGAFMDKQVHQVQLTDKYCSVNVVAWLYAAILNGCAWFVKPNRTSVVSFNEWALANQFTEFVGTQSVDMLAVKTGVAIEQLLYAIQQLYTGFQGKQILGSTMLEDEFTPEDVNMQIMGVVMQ
Chain of HCoV-229E 3CLpro (P0C6X1 2966-3267): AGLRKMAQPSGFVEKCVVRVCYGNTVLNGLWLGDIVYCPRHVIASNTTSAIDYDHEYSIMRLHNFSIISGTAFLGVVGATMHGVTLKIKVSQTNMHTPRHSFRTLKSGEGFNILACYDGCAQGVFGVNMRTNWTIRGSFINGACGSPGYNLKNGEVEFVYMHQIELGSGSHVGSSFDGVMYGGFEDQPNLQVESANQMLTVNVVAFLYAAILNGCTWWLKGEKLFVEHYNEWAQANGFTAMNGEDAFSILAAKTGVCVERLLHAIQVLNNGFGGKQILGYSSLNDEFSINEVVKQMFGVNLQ

| Compound | IC50 (HCoV-229E 3CLpro) [nM] | IC50 (MERS-CoV 3CLpro) [nM] | IC50 (SARS-CoV 3CLpro) [nM] | IC50 (SARS-CoV-2 3CLpro) [nM] |
| --- | --- | --- | --- | --- |
| CC(C)(C)[C@H](NC(=O)C(F)(F)F)C(=O)N1CC2(CC2)C[C@H]1C(=O)NN(C[C@@H]1CCNC1=O)C(=O)[C@H](F)Cl [Example 6, N-[(1S)-1-[(6S)-6-[[[(2R)-2-chloro-2-fluoro-acetyl]-[[(3S)-2-oxopyrrolidin-3-yl]methyl]amino]carbamoyl]-5-azaspiro[2.4]heptane-5-carbonyl]-2,2-dimethyl-propyl]-2,2,2-trifluoro-acetamide] | 42 | 109 | 14 | – |
| CC1(C)[C@@H]2[C@@H](C(=O)NN(C[C@@H]3CCNC3=O)C(=O)[C@H](F)Cl)N(C(=O)COc3cc(F)cc(F)c3)C[C@@H]21 [Example 17, (1R,2S,5S)—N′-[(2R)-2-chloro-2-fluoro-acetyl]-3-[2-(3,5-difluorophenoxy)acetyl]-6,6-dimethyl-N′—[[(3S)-2-oxopyrrolidin-3-yl]methyl]-3-azabicyclo[3.1.0]hexane-2-carbohydrazide] | – | 408 | 429 | 121 |
| CC(C)(C)[C@H](NC(=O)C(F)(F)F)C(=O)N1C[C@H]2[C@@H]([C@H]1C(=O)NN(C[C@@H]1CCNC1=O)C(=O)CCl)C2(C)C [Example 18, N-[(1S)-1-[(1R,2S,5S)-2-[[(2-chloroacetyl)-[[(3S)-2-oxopyrrolidin-3-yl]methyl]amino]carbamoyl]-6,6-dimethyl-3-azabicyclo[3.1.0]hexane-3-carbonyl]-2,2-dimethyl-propyl]-2,2,2-trifluoro-acetamide] | – | 408 | 429 | – |
| CC1(C)[C@@H]2[C@@H](C(=O)NN(C[C@@H]3CCNC3=O)C(=O)[C@H](F)Cl)N(C(=O)[C@H](CC34CC(C3)C4)NC(=O)C(F)(F)F)C[C@@H]21 [Example 65, N-[(1S)-1-(1-bicyclo[1.1.1]pentanylmethyl)-2-[(1R,2S,5S)-2-[[[(2R)-2-chloro-2-fluoro-acetyl]-[[(3S)-2-oxopyrrolidin-3-yl]methyl]amino]carbamoyl]-6,6-dimethyl-3-azabicyclo[3.1.0]hexan-3-yl]-2-oxo-ethyl]-2,2,2-trifluoro-acetamide] | 25 | – | – | – |
| O=C1NCC[C@H]1CN(NC(=O)[C@@H]1[C@H]2CCC[C@H]2CN1C(=O)COc1cccc(F)c1)C(=O)[C@H](F)Cl [Example 88a, (3S,3aS,6aR)—N′-[(2R)-2-chloro-2-fluoro-acetyl]-2-[2-(3-fluorophenoxy)acetyl]-N′—[[(3S)-2-oxopyrrolidin-3-yl]methyl]-3,3a,4,5,6,6a-hexahydro-1H-cyclopenta[c]pyrrole-3-carbohydrazide] | – | 249 | – | 42 |
| O=C1NCC[C@H]1CN(NC(=O)[C@H]1[C@@H]2CCC[C@@H]2CN1C(=O)COc1cccc(F)c1)C(=O)[C@H](F)Cl [Example 88b, (3R,3aR,6aS)—N′-[(2R)-2-chloro-2-fluoro-acetyl]-2-[2-(3-fluorophenoxy)acetyl]-N′—[[(3S)-2-oxopyrrolidin-3-yl]methyl]-3,3a,4,5,6,6a-hexahydro-1H-cyclopenta[c]pyrrole-3-carbohydrazide] | – | 155 | – | > 10000 |
| O=C1NCC[C@H]1CN(NC(=O)[C@@H]1[C@H]2CCC[C@H]2CN1C(=O)COc1cc(F)cc(F)c1)C(=O)[C@H](F)Cl [Example 89a, (3S,3aS,6aR)—N′-[(2R)-2-chloro-2-fluoro-acetyl]-2-[2-(3,5-difluorophenoxy)acetyl]-N′—[[(3S)-2-oxopyrrolidin-3-yl]methyl]-3,3a,4,5,6,6a-hexahydro-1H-cyclopenta[c]pyrrole-3-carbohydrazide] | – | > 10000 | – | 51 |
| O=C1NCC[C@H]1CN(NC(=O)[C@H]1[C@@H]2CCC[C@@H]2CN1C(=O)COc1cc(F)cc(F)c1)C(=O)[C@H](F)Cl [Example 89b, (3R,3aR,6aS)—N′-[(2R)-2-chloro-2-fluoro-acetyl]-2-[2-(3,5-difluorophenoxy)acetyl]-N′—[[(3S)-2-oxopyrrolidin-3-yl]methyl]-3,3a,4,5,6,6a-hexahydro-1H-cyclopenta[c]pyrrole-3-carbohydrazide] | – | 193 | – | > 10000 |
